Data reported in US11376234B2, “Ammonia metabolism promoter” (Kao Corporation, priority 2018, dated 2022).
Marks after values point to notes of the source that are not given here.

Legend:
primary hepatocytes = experiment: Amount of change in ammonia in culture medium of primary hepatocytes (Example 2); format: cell-based, mouse; details: for Ammonia change amount in culture medium, Increasing rate relative to control (%): 5 mM ammonium chloride, 24 hours, control = 100; for amount of change in ammonia in the culture medium relative to the control (in words): Dunnett's test, n=4
Method: For cells, a hepatocyte culture kit (derived from a 10-week-old male Balb/c mouse, 24 wells, 1×10^5 cells/well, Cosmo Bio) was used. A final concentration of 5 mM of ammonium chloride (015-02991, Wako) and 1.4 μM or 4.2 μM of the following catechins (EGC, Cg or ECg) were added to a medium containing high glucose DMEM (31053028, Gibco) containing GlutaMAX (35050-061, Gibco), penicillin/streptomycin (168-23191, Wako) and ascorbic acid (014-04801, Wako), and the cells were cultured therein: EGC (NH020203, Nagara Science Co., Ltd.); Cg (NH 021302, Nagara Science Co., Ltd.); and ECg (NH 020302, Nagara Science Co., Ltd.). Cells cultured in a medium without any added catechins were used as a control. The culture supernatant was collected 24 hours later, and the ammonia contained therein was quantitatively determined using an ammonia assay kit (Abcam). The decrement in the ammonia amount in the culture medium 24 hour after addition of ammonium chloride and catechins relative to the ammonia amount at the time of addition was defined as an amount of change in ammonia in the culture medium.
Each value in Table 1 represents the increasing rate of the amount of change in ammonia relative to that of the control. The statistical processing was performed by using multigroup comparison by Dunnett's test for n=4 per group (**: p <0.001, *: p<0.05).

[1] = tested on: primary cultured hepatocytes; experiment: Urea production of hepatocytes with citrulline and arginine (Reference Example); format: cell-based; details: 5 mM ammonium chloride, 24 hours; Arg+Cit 0.5 mM each, Cit 1 mM; vs control
Method: Cells were recovered from the liver of each mouse and dead cells were removed, in the same procedure as in Example 1. Thereafter, cells were suspended in a DMEM medium, seeded at 10^5 cells/well in a 24-well plate, and cultured.
The cells 24 hours after seeding were washed twice with PBS. Thereafter, the medium was replaced with an FBS, arginine, leucine free DMEM medium (D9443, Sigma), and 5 mM of ammonium chloride (control), ammonium chloride+0.5 mM of L-arginine+0.5 mM of L-citrulline (Arg+Cit), or ammonium chloride+1 mM of L-citrulline (Cit) was added thereto. The culture supernatant was collected 24 hours later, and the urea contained therein was quantitatively determined with QuantiChrom Urea Assay Kit (BioAssay Systems).

| Compound | Ammonia change amount in culture medium, Increasing rate relative to control (%) (primary hepatocytes; 4.2 μM) | amount of change in ammonia in the culture medium relative to the control (in words) (primary hepatocytes; 4.2 μM) | Ammonia change amount in culture medium, Increasing rate relative to control (%) (primary hepatocytes; 1.4 μM) | amount of urea production by hepatocytes [1] |
| --- | --- | --- | --- | --- |
| O=C(O[C@@H]1Cc2c(O)cc(O)cc2O[C@@H]1c1ccc(O)c(O)c1)c1cc(O)c(O)c(O)c1 [ECg, epicatechin gallate] | 126% | – | – | – |
| catechin gallate [Cg] | 174* % | significantly increases | – | – |
| Oc1cc(O)c2c(c1)O[C@H](c1cc(O)c(O)c(O)c1)[C@H](O)C2 [EGC, epigallocatechin] | 186** % | significantly increases | 122 | – |
| NC(=O)NCCC[C@H](N)C(=O)O [Cit, L-citrulline] | – | – | – | significantly increased |
